Assay: xn = mol fraction of the nth substance listed
Details: Liquid, Vibrating tube method

COCCOCCOC [2,5,8-trioxanonane] + CCCCO
Details | mass density [kg/m3]
323.26 K, 30000 kPa, x2 = 0.7308 | 855.36
323.27 K, 100 kPa, x2 = 0.3116 | 884.02
323.27 K, 5000 kPa, x2 = 0.3116 | 888.39
323.27 K, 40000 kPa, x2 = 0.7308 | 862.01
323.27 K, 60000 kPa, x2 = 0.7308 | 874.24
323.27 K, 80000 kPa, x2 = 0.7308 | 885.1
323.27 K, 100000 kPa, x2 = 0.7308 | 894.94
323.28 K, 1000 kPa, x2 = 0.3116 | 884.84
323.28 K, 10000 kPa, x2 = 0.3116 | 892.57
323.28 K, 20000 kPa, x2 = 0.3116 | 900.61
323.28 K, 30000 kPa, x2 = 0.3116 | 907.85
323.28 K, 40000 kPa, x2 = 0.3116 | 914.76
323.28 K, 80000 kPa, x2 = 0.3116 | 938.32
323.29 K, 100 kPa, x2 = 0.8787 | 809.04
323.29 K, 1000 kPa, x2 = 0.8787 | 809.88
323.29 K, 5000 kPa, x2 = 0.8787 | 813.32
323.29 K, 10000 kPa, x2 = 0.8787 | 817.49
323.29 K, 20000 kPa, x2 = 0.8787 | 825.25
323.29 K, 30000 kPa, x2 = 0.8787 | 832.38
323.29 K, 40000 kPa, x2 = 0.8787 | 838.96
323.29 K, 60000 kPa, x2 = 0.3116 | 927.16
323.29 K, 60000 kPa, x2 = 0.8787 | 850.97
323.29 K, 80000 kPa, x2 = 0.8787 | 861.63
323.29 K, 100000 kPa, x2 = 0.3116 | 948.49
323.29 K, 100010 kPa, x2 = 0.8787 | 871.34
342.49 K, 100 kPa, x2 = 0 | 894.03
342.49 K, 1000 kPa, x2 = 0 | 894.98
342.49 K, 5000 kPa, x2 = 0 | 898.96
342.5 K, 10000 kPa, x2 = 0 | 903.66
342.5 K, 20000 kPa, x2 = 0 | 912.57
342.51 K, 30000 kPa, x2 = 0 | 920.68
342.51 K, 40000 kPa, x2 = 0 | 928.18
342.51 K, 60000 kPa, x2 = 0 | 941.77
342.51 K, 80000 kPa, x2 = 0 | 953.82
342.52 K, 100000 kPa, x2 = 0 | 964.68
342.99 K, 100 kPa, x2 = 0.5469 | 838.63
343 K, 1000 kPa, x2 = 0.5469 | 839.58
343 K, 5000 kPa, x2 = 0.5469 | 843.51
343 K, 10000 kPa, x2 = 0.5469 | 848.2
343.01 K, 20000 kPa, x2 = 0.5469 | 856.98
343.01 K, 30000 kPa, x2 = 0.5469 | 864.93
343.01 K, 40000 kPa, x2 = 0.5469 | 872.29
343.01 K, 60000 kPa, x2 = 0.5469 | 885.57
343.01 K, 80000 kPa, x2 = 0.5469 | 897.36
343.02 K, 100 kPa, x2 = 0.7308 | 814.17
343.02 K, 100000 kPa, x2 = 0.5469 | 907.94
343.03 K, 1000 kPa, x2 = 0.7308 | 815.11
343.03 K, 5000 kPa, x2 = 0.7308 | 819.06
343.03 K, 80000 kPa, x2 = 0.8787 | 849.39
343.04 K, 100 kPa, x2 = 0.3116 | 864.74
343.04 K, 100 kPa, x2 = 0.8787 | 792.02
343.04 K, 1000 kPa, x2 = 0.3116 | 865.7
343.04 K, 1000 kPa, x2 = 0.8787 | 792.98
343.04 K, 5000 kPa, x2 = 0.8787 | 796.88
343.04 K, 10000 kPa, x2 = 0.7308 | 823.7
343.04 K, 10000 kPa, x2 = 0.8787 | 801.5
343.04 K, 20000 kPa, x2 = 0.7308 | 832.39
343.04 K, 20000 kPa, x2 = 0.8787 | 810.09
343.04 K, 30000 kPa, x2 = 0.7308 | 840.28
343.04 K, 30000 kPa, x2 = 0.8787 | 817.86
343.04 K, 40000 kPa, x2 = 0.7308 | 847.55
343.04 K, 40000 kPa, x2 = 0.8787 | 825.03
343.04 K, 60000 kPa, x2 = 0.7308 | 860.64
343.04 K, 60000 kPa, x2 = 0.8787 | 837.96
343.04 K, 80000 kPa, x2 = 0.7308 | 872.22
343.04 K, 100000 kPa, x2 = 0.7308 | 882.62
343.04 K, 100000 kPa, x2 = 0.8787 | 859.63
343.05 K, 5000 kPa, x2 = 0.3116 | 869.66
343.05 K, 10000 kPa, x2 = 0.3116 | 874.4
343.06 K, 20000 kPa, x2 = 0.3116 | 883.26
343.06 K, 30000 kPa, x2 = 0.3116 | 891.31
343.06 K, 40000 kPa, x2 = 0.3116 | 898.79
343.06 K, 60000 kPa, x2 = 0.3116 | 912.24
343.07 K, 80000 kPa, x2 = 0.3116 | 924.13
343.08 K, 100000 kPa, x2 = 0.3116 | 934.89
362.51 K, 100 kPa, x2 = 0 | 873.45
362.51 K, 1000 kPa, x2 = 0 | 874.46
362.51 K, 5000 kPa, x2 = 0 | 879.02
362.52 K, 10000 kPa, x2 = 0 | 884.41
362.52 K, 20000 kPa, x2 = 0 | 894.33
362.52 K, 30000 kPa, x2 = 0 | 903.29
362.52 K, 40000 kPa, x2 = 0 | 911.53
362.53 K, 60000 kPa, x2 = 0 | 926.3
362.53 K, 80000 kPa, x2 = 0 | 939.26
362.53 K, 100000 kPa, x2 = 0 | 950.89
362.67 K, 100 kPa, x2 = 0.5469 | 819.52
362.68 K, 1000 kPa, x2 = 0.5469 | 820.52
362.68 K, 5000 kPa, x2 = 0.5469 | 825.03
362.68 K, 10000 kPa, x2 = 0.5469 | 830.34
362.69 K, 100 kPa, x2 = 0.8787 | 774.25
362.69 K, 1000 kPa, x2 = 0.8787 | 775.26
362.69 K, 5000 kPa, x2 = 0.8787 | 779.7
362.69 K, 20000 kPa, x2 = 0.5469 | 840.09
362.69 K, 30000 kPa, x2 = 0.5469 | 848.85
362.69 K, 40000 kPa, x2 = 0.5469 | 856.9
362.69 K, 60000 kPa, x2 = 0.5469 | 871.26
362.69 K, 80000 kPa, x2 = 0.5469 | 883.92
362.7 K, 5000 kPa, x2 = 0.3116 | 850.69
362.7 K, 10000 kPa, x2 = 0.8787 | 784.88
362.7 K, 20000 kPa, x2 = 0.8787 | 794.41
362.7 K, 30000 kPa, x2 = 0.8787 | 802.93
362.7 K, 40000 kPa, x2 = 0.8787 | 810.75
362.7 K, 60000 kPa, x2 = 0.8787 | 824.68
362.7 K, 100000 kPa, x2 = 0.5469 | 895.2
362.71 K, 100 kPa, x2 = 0.3116 | 845.12
362.71 K, 100 kPa, x2 = 0.7308 | 795.72
362.71 K, 1000 kPa, x2 = 0.3116 | 846.14
362.71 K, 10000 kPa, x2 = 0.3116 | 856.03
362.71 K, 20000 kPa, x2 = 0.3116 | 865.91
362.71 K, 30000 kPa, x2 = 0.3116 | 874.79
362.71 K, 80000 kPa, x2 = 0.8787 | 836.92
362.71 K, 100000 kPa, x2 = 0.8787 | 847.79
362.72 K, 1000 kPa, x2 = 0.7308 | 796.73
362.72 K, 5000 kPa, x2 = 0.7308 | 801.19
362.72 K, 10000 kPa, x2 = 0.7308 | 806.44
362.72 K, 20000 kPa, x2 = 0.7308 | 816.08
362.72 K, 30000 kPa, x2 = 0.7308 | 824.74
362.72 K, 40000 kPa, x2 = 0.3116 | 882.96
362.72 K, 40000 kPa, x2 = 0.7308 | 832.66
362.72 K, 60000 kPa, x2 = 0.3116 | 897.55
362.72 K, 80000 kPa, x2 = 0.3116 | 910.38
362.72 K, 100000 kPa, x2 = 0.3116 | 921.84
362.73 K, 60000 kPa, x2 = 0.7308 | 846.83
362.73 K, 80000 kPa, x2 = 0.7308 | 859.23
362.73 K, 100000 kPa, x2 = 0.7308 | 870.28

From the NIST ThermoML archive (doi:10.1021/acs.jced.7b00176)
